In US9006185B2, “Use of cell-permeable peptide inhibitors of the JNK signal transduction pathway for the treatment of various diseases” (Xigen Inflammation Ltd., priority 2008, dated 2015):
“Also recorded” adds a separate entry of the source.

Experiments:
TC-3 cells [1] = assay: Cellular import of fluorescein-labeled TAT and TAT-IB1(s) peptides; assay type: cell-based
Experimental: The ability of the L- and D-enantiomeric forms of TAT and TAT-IB1(s) peptides (“TAT-IB peptides”) to enter cells was evaluated. L-TAT, D-TAT, L-TAT-IB1(s), and D-TAT-IB1(s) peptides [SEQ ID NOs: 5, 6, 9 and 12, respectively] were labeled by N-terminal addition of a glycine residue conjugated to fluorescein. Labeled peptides (1 μM) were added to TC-3 cell cultures, which were maintained as described in Example 3. At predetermined times cells were washed with PBS and fixed for five minutes in ice-cold methanol-acetone (1:1) before being examined under a fluorescence microscope. Fluorescein-labeled BSA (1 μM, 12 moles/mole BSA) was used as a control.
Little to no signal was present at 48 hours.
Fluorescent signals from these all-D retro-inverso peptides were still very strong 1 week later, and the signal was only slightly diminished at 2 weeks post treatment.

TC-3 cells [2] = assay: IL-1 induced pancreatic beta-cell death, peptide treatment; assay type: cell-based; conditions: one single addition 1 μM, 15 days of incubation with IL-1
Experimental: Inhibition of IL-1 induced pancreatic beta-cell death by the D-TAT-IB1(s) peptide was analyzed. TC-3 cells were incubated as described above for 30 minutes with one single addition of the indicated peptides (1, μM), then IL-1 (10 ng/ml) was added.
Apoptotic cells were then counted after two days of incubation with IL-1 by use of Propidium Iodide and Hoechst 33342 nuclear staining. A minimum of 1,000 cells were counted for each experiment. Standard Error of the Means (SEM) are indicated, n=5.
Long term inhibition of IL-1P induced cell-death by the D-TAT-IB1 peptide was also analyzed. TC-3 cells were incubated as above for 30 minutes with one single addition of the indicated peptides (1 μM), then IL-1 (10 ng/ml) was added, followed by addition of the cytokine every two days. Apoptotic cells were then counted after 15 days of incubation with IL-1 by use of propidium iodide and Hoechst 33342 nuclear staining. […] A minimum of 1.000 cells were counted for each experiment.

Aβ1-40 and Aβ1-42 = Aβ1-40 and Aβ1-42 ELISA in brain homogenate fractions and CSF of hAPP Tg mice; assay type: in vivo
Experimental: iv) Treatment • Forty female hAPP transgenic mice were treated with either 0.1 mg/kg b.w./every two weeks or 10 mg/kg b.w./every three weeks of the test substance XG-102 (SEQ ID NO: 11) in two different dosages (n=12/group) or treated with the vehicle (n=12) s.c. once every three weeks over four months.
vi) Tissue Sampling • At the end of the treatment period, and following all behavioral testing, all remaining mice (n=28) were sacrificed. Therefore, all mice were sedated by standard inhalation anesthesia (Isofluran, Baxter) as described in SOP MET030. Cerebrospinal fluid (CSF) was obtained by blunt dissection and exposure of the foramen magnum. Upon exposure, a Pasteur pipette was inserted to the approximate depth of 0.3-1 mm into the foramen magnum. CSF was collected by suctioning and capillary action until flow fully ceases. Two aliquots of each sample were immediately frozen and kept at −80° C. until ready for further analysis with ELISA technique. After CSF sampling, each mouse was placed in dorsal recumbence, thorax was opened and a 26-gauge needle attached to a 1 cc syringe was inserted into the right cardiac ventricular chamber. Light suction was applied to the needle and blood was collected into EDTA and consequently used to obtain plasma. To get plasma, blood samples from each mouse were spun at 1,750 rpm (700 g) for 10 minutes in a centrifuge (GS-6R Beckman) using a rotor with swing buckets (GH—3.8 Beckman). Plasma was frozen and stored at −20° C. until further analysis. After blood sampling transgenic mice were intracardially perfused with 0.9% sodium chloride. Brains were rapidly removed the cerebellum was cut off. The right hemispheres of all mice were immersion fixed in freshly produced 4% Paraformaldehyde/PBS (pH 7.4) for one hour at room temperature. Thereafter brains were transferred to a 15% sucrose PBS solution for 24 hours to ensure cryoprotection. […]
vii) Determination of Aβ1-40 and Aβ1-42 • In four different brain homogenate fractions of each Tg mouse as well as in CSF samples the Aβ1-40 and Aβ1-42 levels were evaluated with ELISA technique. […]

murine T cells = assay: PMA & ionomycin-induced cytokine production in murine T cells; assay type: cell-based

CC(C)C[C@@H](NC(=O)[C@@H](Cc1ccccc1)NC(=O)[C@H]1CCCN1C(=O)[C@@H](CCC(N)=O)NC(=O)[C@H](NC(=O)[C@H]1CCCN1C(=O)[C@@H](CCCNC(=N)N)NC(=O)[C@@H](CO)NC(=O)[C@@H](CCC(N)=O)NC(=O)[C@H](N)CC(=O)O)C(C)C)C(=O)N[C@H](CC(N)=O)C(=O)N[C@H](CC(C)C)C(=O)N[C@@H](C(=O)N[C@@H](C(=O)N1CCC[C@@H]1C(=O)N[C@H](CCCNC(=N)N)C(=O)N[C@H](CCCCN)C(=O)N1CCC[C@@H]1C(=O)N[C@H](CCCNC(=N)N)C(=O)N1CCC[C@@H]1C(=O)N1CCC[C@@H]1C(=O)N[C@H](CCCNC(=N)N)C(=O)N[C@H](CCCNC(=N)N)C(=O)N[C@H](CCCNC(=N)N)C(=O)N[C@H](CCC(N)=O)C(=O)N[C@H](CCCNC(=N)N)C(=O)N[C@H](CCCNC(=N)N)C(=O)N[C@H](CCCCN)C(=O)N[C@H](CCCCN)C(=O)N[C@H](CCCNC(=N)N)C(=O)NCC(=O)O)[C@H](C)O)[C@H](C)O [XG-102]
entry into cells (fluorescence microscopy) (TC-3 cells [1]): efficiently and rapidly (less than five minutes) entered cells | stability inside the cells (TC-3 cells [1]): extremely stable inside the cells | long term protection from IL-1 induced cell death (TC-3 cells [2]): able to confer long term (15 day) protection | brain homogenate Aβ1-40 levels (Aβ1-40 and Aβ1-42; both dosages): did not affect brain homogenate Aβ1-40 levels | CSF Aβ1-40 and Aβ1-42 levels (Aβ1-40 and Aβ1-42; both dosages, p<0.01 10 mg/kg, <0.05 low dosage): a significant decrease of Aβ1-40 and Aβ1-42 in CSF; also recorded: significantly decreased in CSF compared to vehicle group | Aβ1-42 level in Triton X-100 fraction (Aβ1-40 and Aβ1-42; low dose 0.1 mg/kg, p<0.05 vs vehicle): a significant reduction compared to the vehicle group | PMA & ionomycin-induced TNFa and IFNg production (murine T cells): also inhibits cytokine release in primary lymphoid and myeloid cells
